Patent US20230265151A1, “GIP/GLP1 CO-AGONIST COMPOUNDS” (priority 2020, published 2023)
Read-outs that look alike come from different tables or passages of the source.

What was measured:
Format in all cases: cell-based
hGCGR = molecular target: T1, hGCGR (Homo sapiens, UniProt P47871); test: Functional cAMP formation (HTRF) in HEK-293 clonal cells expressing hGCGR, 0.1% bovine casein, without or with 1.0% human serum albumin; conditions: read-out: hGCGR EC50, nM (SEM, n)
T1 construct: expressed in transfected cells
How it was run: (§1)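 Readings of the HTRF 665/620 nm ratio, which falls as cAMP rises, were converted to nM cAMP using a standard curve after 30 min peptide exposure at 37° C.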

hGIPR = molecular target: T2, hGIPR (Homo sapiens, UniProt P48546); test: Functional cAMP formation (HTRF) in HEK-293 clonal cells expressing hGIPR, 0.1% bovine casein, without or with 1.0% human serum albumin; conditions: for Emax: read-out: hGIPR Emax, % ± SEM; for EC50: cAMP, read-out: hGIPR EC50, nM (SEM, n)
T2 construct: expressed in transfected cells
T2 sequence (P48546 22-466): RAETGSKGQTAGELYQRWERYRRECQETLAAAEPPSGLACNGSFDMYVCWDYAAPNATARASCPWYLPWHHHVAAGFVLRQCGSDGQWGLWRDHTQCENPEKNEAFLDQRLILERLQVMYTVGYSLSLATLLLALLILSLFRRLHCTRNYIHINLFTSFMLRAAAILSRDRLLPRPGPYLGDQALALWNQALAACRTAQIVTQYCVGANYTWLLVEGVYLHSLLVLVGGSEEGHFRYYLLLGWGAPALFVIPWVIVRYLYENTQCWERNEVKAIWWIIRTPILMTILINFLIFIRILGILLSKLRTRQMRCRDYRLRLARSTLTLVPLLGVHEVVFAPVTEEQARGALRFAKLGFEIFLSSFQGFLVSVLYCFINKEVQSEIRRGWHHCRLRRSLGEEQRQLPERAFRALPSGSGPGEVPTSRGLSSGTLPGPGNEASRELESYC
How it was run: as §1

hGLP-1R = hGLP-1R (Homo sapiens, UniProt P43220); test: Functional cAMP formation (HTRF) in HEK-293 clonal cells expressing hGLP-1R, 0.1% bovine casein, without or with 1.0% human serum albumin; set-up: expressed in transfected cells; conditions: 37° C.; for EC50: read-out: hGLP-1R EC50, nM (SEM, n); for Emax: percent of maximal response to GLP-1(7-36)NH2, read-out: hGLP-1R Emax, % ± SEM
How it was run: as §1

[1] = 0.1% bovine casein and 1.0% human serum albumin, 37° C., geometric mean
[2] = cAMP, 37° C., 0.1% bovine casein (no human serum albumin), geometric mean
[3] = HEK293, 0.1% bovine casein and 1.0% human serum albumin, 37° C., percent of maximal response to GIP(1-42)NH2
[4] = HEK293, cAMP, 37° C., 0.1% bovine casein, percent of maximal response to GIP(1-42)NH2, arithmetic mean
[5] = 37° C., 0.1% bovine casein (no human serum albumin), geometric mean
[6] = 0.1% bovine casein and 1.0% human serum albumin, geometric mean
[7] = HEK293, 0.1% bovine casein and 1.0% human serum albumin
[8] = HEK293, cAMP, 0.1% bovine casein, arithmetic mean
[9] = cAMP, 0.1% bovine casein (no human serum albumin), geometric mean

hGLP-1R, sequence (P43220 24-463): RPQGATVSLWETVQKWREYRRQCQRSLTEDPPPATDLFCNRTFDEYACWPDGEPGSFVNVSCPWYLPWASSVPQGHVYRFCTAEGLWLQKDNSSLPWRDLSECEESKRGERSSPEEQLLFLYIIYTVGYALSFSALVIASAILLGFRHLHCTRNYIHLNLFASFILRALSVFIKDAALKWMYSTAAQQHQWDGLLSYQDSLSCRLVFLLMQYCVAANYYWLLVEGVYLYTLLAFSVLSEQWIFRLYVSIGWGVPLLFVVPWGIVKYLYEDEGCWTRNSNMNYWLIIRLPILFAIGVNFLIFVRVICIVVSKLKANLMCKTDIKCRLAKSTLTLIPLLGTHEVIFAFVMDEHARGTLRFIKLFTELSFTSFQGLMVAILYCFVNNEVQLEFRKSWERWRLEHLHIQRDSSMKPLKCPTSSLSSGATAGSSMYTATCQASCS
T1 sequence (P47871 26-477): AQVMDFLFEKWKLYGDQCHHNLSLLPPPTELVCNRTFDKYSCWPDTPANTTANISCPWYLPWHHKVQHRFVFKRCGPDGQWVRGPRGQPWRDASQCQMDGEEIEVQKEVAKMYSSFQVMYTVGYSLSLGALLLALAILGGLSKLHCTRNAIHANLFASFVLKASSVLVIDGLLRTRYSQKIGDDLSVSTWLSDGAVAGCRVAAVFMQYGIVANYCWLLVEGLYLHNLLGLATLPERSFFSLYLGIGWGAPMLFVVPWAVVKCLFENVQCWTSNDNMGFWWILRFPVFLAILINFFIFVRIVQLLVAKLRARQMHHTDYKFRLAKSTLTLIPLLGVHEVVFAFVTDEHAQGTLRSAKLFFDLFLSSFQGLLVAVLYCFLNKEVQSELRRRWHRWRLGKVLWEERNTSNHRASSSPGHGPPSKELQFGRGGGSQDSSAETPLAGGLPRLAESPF

CC[C@H](C)[C@H](NC(=O)[C@H](CCCN)NC(=O)[C@H](CC(=O)O)NC(=O)[C@H](CC(C)C)NC(=O)[C@](C)(CC(C)C)NC(=O)[C@@H](NC(=O)[C@H](CO)NC(=O)[C@H](Cc1ccc(OC)cc1)NC(=O)[C@H](CC(=O)O)NC(=O)[C@H](CO)NC(=O)[C@@H](NC(=O)[C@](C)(Cc1ccccc1F)NC(=O)[C@@H](NC(=O)CNC(=O)[C@H](CCC(=O)O)NC(=O)C(C)(C)NC(=O)[C@@H](N)Cc1ccc(O)cc1)[C@@H](C)O)[C@@H](C)O)[C@@H](C)CC)C(=O)N[C@@H](C)C(=O)N[C@@H](CCC(N)=O)C(=O)NC(C)(C)C(=O)N[C@@H](CCCCNC(=O)COCCOCCNC(=O)COCCOCCNC(=O)CC[C@H](NC(=O)CCCCCCCCCCCCC(=O)O)C(=O)O)C(=O)N[C@@H](Cc1ccccc1)C(=O)N[C@H](C(=O)N[C@H](CCC(=O)O)C(=O)N[C@@](C)(Cc1ccc(O)cc1)C(=O)N[C@@H](CC(C)C)C(=O)N[C@H](C(=O)N[C@@H](CCCCNC(=O)COCCOCCNC(=O)COCCOCCNC(=O)CC[C@H](NC(=O)CCCCCCCCCCCCC(=O)O)C(=O)O)C(=O)NCC(=O)NCC(=O)N1CCC[C@H]1C(=O)N[C@@H](CO)C(=O)N[C@@H](CO)C(=O)NCC(=O)N[C@@H](C)C(=O)N1CCC[C@H]1C(=O)N1CCC[C@H]1C(=O)N1CCC[C@H]1C(=O)N[C@@H](CO)C(N)=O)[C@@H](C)CC)[C@@H](C)CC [Example 263]
EC50 (hGCGR; [1]): > 9950 nM | EC50 (hGCGR; [2]): > 9950 nM | Emax (hGIPR; [3]): 72.7% | Emax (hGIPR; [4]): 88.6% | EC50 (hGIPR; [5]): 0.0214 nM | EC50 (hGLP-1R; [6]): 56.7 nM | Emax (hGLP-1R; [7]): 95.8% | Emax (hGLP-1R; [8]): 98.5% | EC50 (hGLP-1R; [9]): 0.294 nM

CC[C@H](C)[C@H](NC(=O)[C@H](CC(C)C)NC(=O)[C@](C)(Cc1ccc(O)cc1)NC(=O)[C@@H](CCC(=O)O)NC(=O)[C@@H](NC(=O)[C@H](Cc1cccc2ccccc12)NC(=O)[C@H](CCC(=O)O)NC(=O)C(C)(C)NC(=O)[C@H](CCC(N)=O)NC(=O)[C@H](C)NC(=O)[C@H](CCCCNC(=O)COCCOCCNC(=O)COCCOCCNC(=O)CC[C@H](NC(=O)CCCCCCCCCCCCC(=O)O)C(=O)O)NC(=O)[C@H](CCCN)NC(=O)[C@H](CC(=O)O)NC(=O)[C@H](CC(C)C)NC(=O)[C@](C)(CC(C)C)NC(=O)[C@@H](NC(=O)[C@H](CO)NC(=O)[C@H](Cc1ccncc1)NC(=O)[C@H](CC(=O)O)NC(=O)[C@H](CO)NC(=O)[C@@H](NC(=O)[C@](C)(Cc1ccccc1F)NC(=O)[C@@H](NC(=O)CNC(=O)[C@H](CCC(=O)O)NC(=O)C(C)(C)NC(=O)[C@@H](N)Cc1ccc(O)cc1)[C@@H](C)O)[C@@H](C)O)[C@@H](C)CC)[C@@H](C)CC)C(=O)N[C@@H](CCC(=O)O)C(=O)NCC(=O)NCC(=O)N[C@@H](CCCCNC(=O)COCCOCCNC(=O)COCCOCCNC(=O)CC[C@H](NC(=O)CCCCCCCCCCCCC(=O)O)C(=O)O)C(=O)N[C@@H](CO)C(=O)N[C@@H](CO)C(=O)NCC(=O)N[C@@H](C)C(=O)N1CCC[C@H]1C(=O)N1CCC[C@H]1C(=O)N1CCC[C@H]1C(=O)N[C@@H](CO)C(N)=O [Example 66]
EC50 (hGCGR; [1]): > 9950 nM | EC50 (hGCGR; cAMP, incubated at 37° C., 0.1% bovine casein (no human serum albumin), geometric mean): > 9950 nM | Emax (hGIPR; [3]): 90.6 ± 3.37% | Emax (hGIPR; HEK293, percent of maximal response to GIP(1-42)NH2, 37° C., 0.1% bovine casein, arithmetic mean): 93.5 ± 1.39% | EC50 (hGIPR; incubated at 37° C., 0.1% bovine casein (no human serum albumin), geometric mean): 0.0168 nM | EC50 (hGLP-1R; [6]): 27 nM | Emax (hGLP-1R; [7]): 93 ± 2.36%

CC[C@H](C)[C@H](NC(=O)[C@H](CCCN)NC(=O)[C@H](CC(=O)O)NC(=O)[C@H](CC(C)C)NC(=O)[C@](C)(CC(C)C)NC(=O)[C@@H](NC(=O)C(C)(C)NC(=O)[C@@H](NC(=O)[C@H](CC(=O)O)NC(=O)[C@H](CO)NC(=O)[C@@H](NC(=O)[C@](C)(Cc1ccccc1F)NC(=O)[C@@H](NC(=O)CNC(=O)[C@H](CCC(=O)O)NC(=O)C(C)(C)NC(=O)[C@@H](N)Cc1ccc(O)cc1)[C@@H](C)O)[C@@H](C)O)C(C)C)[C@@H](C)CC)C(=O)N[C@@H](C)C(=O)N[C@@H](CCC(N)=O)C(=O)NC(C)(C)C(=O)N[C@@H](CCC(=O)O)C(=O)N[C@@H](Cc1ccccc1)C(=O)N[C@H](C(=O)N[C@@H](CCCCNC(=O)COCCOCCNC(=O)COCCOCCNC(=O)CC[C@H](NC(=O)CCCCCCCCCCCCC(=O)O)C(=O)O)C(=O)N[C@@](C)(Cc1ccc(O)cc1)C(=O)N[C@@H](CC(C)C)C(=O)N[C@H](C(=O)N[C@@H](CCCCNC(=O)COCCOCCNC(=O)COCCOCCNC(=O)CC[C@H](NC(=O)CCCCCCCCCCCCC(=O)O)C(=O)O)C(=O)NCC(=O)NCC(=O)N1CCC[C@H]1C(=O)N[C@@H](CO)C(=O)N[C@@H](CO)C(=O)NCC(=O)N[C@@H](C)C(=O)N1CCC[C@H]1C(=O)N1CCC[C@H]1C(=O)N1CCC[C@H]1C(=O)N[C@@H](CO)C(N)=O)[C@@H](C)CC)[C@@H](C)CC [Example 304]
EC50 (hGCGR; [1]): > 9950 nM | EC50 (hGCGR; [2]): > 9950 nM | Emax (hGIPR; [4]): 110% | EC50 (hGIPR; [5]): 0.047 nM | Emax (hGLP-1R; [7]): 98.3% | EC50 (hGLP-1R; [9]): 0.474 nM

CC[C@H](C)[C@H](NC(=O)[C@H](CCCN)NC(=O)[C@H](CC(=O)O)NC(=O)[C@H](CC(C)C)NC(=O)[C@](C)(CC(C)C)NC(=O)[C@@H](NC(=O)C(C)(C)NC(=O)[C@H](Cc1ccncc1)NC(=O)[C@H](CC(=O)O)NC(=O)[C@H](CO)NC(=O)[C@@H](NC(=O)[C@](C)(Cc1ccccc1F)NC(=O)[C@@H](NC(=O)CNC(=O)[C@H](CCC(=O)O)NC(=O)C(C)(C)NC(=O)[C@@H](N)Cc1ccc(O)cc1)[C@@H](C)O)[C@@H](C)O)[C@@H](C)CC)C(=O)N[C@@H](C)C(=O)N[C@@H](CCC(N)=O)C(=O)NC(C)(C)C(=O)N[C@@H](CCC(=O)O)C(=O)N[C@@H](Cc1ccccc1)C(=O)N[C@H](C(=O)N[C@@H](CCCCNC(=O)COCCOCCNC(=O)COCCOCCNC(=O)COCCOCCNC(=O)CC[C@H](NC(=O)CCCCCCCCCCCCC(=O)O)C(=O)O)C(=O)N[C@@](C)(Cc1ccc(O)cc1)C(=O)N[C@@H](CC(C)C)C(=O)N[C@H](C(=O)N[C@@H](CCCCNC(=O)COCCOCCNC(=O)COCCOCCNC(=O)COCCOCCNC(=O)CC[C@H](NC(=O)CCCCCCCCCCCCC(=O)O)C(=O)O)C(=O)NCC(=O)NCC(=O)N1CCC[C@H]1C(=O)N[C@@H](CO)C(=O)N[C@@H](CO)C(=O)NCC(=O)N[C@@H](C)C(=O)N1CCC[C@H]1C(=O)N1CCC[C@H]1C(=O)N1CCC[C@H]1C(=O)N[C@@H](CO)C(N)=O)[C@@H](C)CC)[C@@H](C)CC [Example 342]
EC50 (hGCGR; [2]): > 10100 nM | EC50 (hGCGR; cAMP, 37° C., 0.1% bovine casein and 1.0% human serum albumin, geometric mean (SEM, n)): > 9950 nM | Emax (hGIPR; HEK293, cAMP, 37° C., 0.1% bovine casein and 1.0% human serum albumin, percent of maximal response to GIP(1-42)NH2): 89.3% | EC50 (hGIPR; [5]): 0.0105 nM | EC50 (hGIPR; 37° C., 0.1% bovine casein and 1.0% human serum albumin, geometric mean (SEM, n)): 1.04 nM | Emax (hGLP-1R; [8]): 113% | EC50 (hGLP-1R; [9]): 0.191 nM | EC50 (hGLP-1R; cAMP, 0.1% bovine casein and 1.0% human serum albumin, geometric mean (SEM, n)): 13.6 nM
